Test results from the NIST ThermoML archive (doi:10.1016/j.fluid.2015.04.031).
Numbers after ± are expanded uncertainties.

Settings: Liquid; for mass density: 101.33 kPa, Vibrating tube method; for vapor or sublimation pressure: Closed cell (Static) method

Question: For `CCCC[n+]1ccc(C)cc1.N#CC(=C=[N-])C#N` [1-butyl-4-methylpyridinium tricyanomethanide], which mass density (298.15 K) is on record?
Answer: 1036.62 ± 1.2 kg/m3

Question: With `CCCC[N+]1(C)CCCC1.N#CC(=C=[N-])C#N` [1-butyl-1-methylpyrrolidinium tricyanomethanide] as the compound, how does the mass density (298.15 K) read?
Answer: 1006.75 ± 1.1 kg/m3

Question: With `c1ccncc1` [pyridine] as the compound, how does the “vapor or sublimation pressure” value (293.15 K) read?
Answer: 2.1 ± 0.1 kPa

Question: What about the mass density (298.15 K) of the same compound?
Answer: 982.85 ± 0.11 kg/m3

Question: And the “vapor or sublimation pressure” value (298.15 K)?
Answer: 2.77 ± 0.11 kPa

Question: What about the “vapor or sublimation pressure” value (303.15 K) of the same compound?
Answer: 3.62 ± 0.11 kPa

Question: And the “vapor or sublimation pressure” value (308.15 K)?
Answer: 4.68 ± 0.11 kPa

Question: What about the “vapor or sublimation pressure” value (313.15 K) of the same compound?
Answer: 6 ± 0.11 kPa

Question: What does the source list for `c1ccsc1` [thiophene]?
Answer: vapor or sublimation pressure (293.15 K): 8.19 ± 0.13 kPa; mass density (298.15 K): 1058.56 ± 0.12 kg/m3; vapor or sublimation pressure (298.15 K): 10.4 ± 0.14 kPa; vapor or sublimation pressure (303.15 K): 12.97 ± 0.15 kPa; vapor or sublimation pressure (308.15 K): 16.1 ± 0.17 kPa; vapor or sublimation pressure (313.15 K): 19.4 ± 0.17 kPa
